Measured values as given in PMC11320730, “5-Methoxy-2-aminoindane Reverses Diet-Induced Obesity and Improves Metabolic Parameters in Mice: A Potential New Class of Antiobesity Therapeutics” (ACS Pharmacology & Translational Science, 2024).

Key:
[1] = biological target: 5-HT2B (Homo sapiens, UniProt P41595); assay: 5-HT2B calcium influx assay (agonist) in BA/F3 cells; assay type: cell-based; set-up: host or cells: BA/F3 cells
[2] = test system: C57Bl/6 mice; assay: Sucrose preference test; assay type: in vivo; conditions: 40 mg/kg, single dose
Procedure: Thirteen-week-old male C57BL/6 mice, maintained on a STD and housed individually, were habituated to two water bottles in their home cage for 48 h prior to the test. Baseline intake was measured by weighing the bottles. On the test day (day 1), 2 h before the onset of the dark phase, fresh water and a 1.5% sucrose solution were added to the bottles and mice were subsequently treated orally with MEAI (40 mg/kg, N = 8) or sterile water (N = 8). The mice were allowed to freely drink from either bottle for 24 h, after which the bottles were weighed to measure consumption. The study was repeated for an additional day (day 2), with the bottles switched in position (in the cage) to account for side preference. The sucrose and water intake over the 2 days were averaged, and the sucrose preference index was calculated as the average consumed sucrose solution divided by the average volume of total consumed liquid (average water plus average sucrose solution).

[3] = test system: DIO C57BL/6 mice; assay: Blood biochemistry in DIO mice; assay type: in vivo; conditions: 40 mg/kg/day
Procedure: (§1) Male C57BL/6 mice were used to establish DIO by feeding them a high-fat diet (HFD; 60% cal/L fat, 20% cal/L protein, and 20% cal/L carbohydrates; Research Diet, D12492) for 18 weeks. After this period, mice were treated with either vehicle (sterile water, N = 8) or MEAI (N = 11) daily for 28 days by gavage at a dose of 40 mg/kg/day. Age-matched control mice (N = 10) on a standard diet (STD; 14% kcal fat, 24% kcal protein, 62% kcal carbohydrates; NIH-31 rodent diet) received vehicle daily. The body weight of all mice was monitored daily, and total body fat and lean mass were determined by EchoMRI-100H (Echo Medical Systems LLC, Houston, Texas, USA). On day 29, at the end of the experimental period, mice were euthanized by a cervical dislocation under anesthesia. The kidneys, brain, liver, and fat pads were removed and weighed, and samples were either snap-frozen or fixed in buffered 4% formalin. Trunk blood was collected to determine the biochemical parameters.
Serum levels of alanine aminotransferase (ALT), aspartate aminotransferase (AST), alkaline phosphatase (ALP), cholesterol, triglycerides, high-density lipoprotein (HDL), and low-density lipoprotein (LDL) were quantified post-termination using the Cobas C-111 chemistry analyzer (Roche, Switzerland). Fasting blood glucose was measured using the Contour glucometer (Bayer, Pittsburgh, Pennsylvania, USA), while serum insulin was determined using an Ultra-Sensitive Mouse Insulin ELISA kit (Cat# 90080, Crystal Chem, Inc., Elk Grove Village, Illinois, USA). Serum-free fatty acid content was determined using a Free Fatty Acid Assay Kit (Cat# ab65341, Abcam, Cambridge, UK).

[4] = test system: hepatic lipid metabolism regulators; assay: Western blotting of liver proteins in DIO mice; assay type: in vivo; conditions: 40 mg/kg/day
Procedure: as §1
Liver samples were prepared in a RIPA buffer (25 mM Tris–HCl pH 7.6, 150 mM NaCl, 1% NP-40, 1% sodium deoxycholate, 0.1% SDS), and the homogenates were prepared by using the Bullet Blender and zirconium oxide beads (catalog no. ZROB10, Next Advanced, Inc., New York, USA). Protein concentrations were measured with the Pierce BCA Protein Assay Kit (catalog no. 23225, Thermo Scientific, Illinois, USA). Samples were resolved by SDS-PAGE (4–15% acrylamide, 150 V) and transferred to PVDF or nitrocellulose membranes using the Trans-Blot Turbo Transfer System (Bio-Rad, California). The membranes were then incubated for 1 h in 5% milk (in 1× M TBS-T) to block unspecific binding. The membranes were incubated overnight with cluster of differentiation 36 (CD36; Abcam, Cambridge, UK; Cat# ab252922), stearoyl-CoA desaturase 1 (SCD1; Cell Signaling Technology, Danvers, Massachusetts; Cat# 2794S), fatty acid synthase (FASN; Cell Signaling Technology, Danvers, Massachusetts, USA; Cat# 3180S), 5′-adenosine monophosphate (AMP)-activated protein kinase alpha (AMPKα; Cell Signaling Technology, Danvers, Massachusetts, USA; Cat# 2532S), phosphorylated-AMPKα (Cell Signaling Technology, Danvers, Massachusetts, USA; Cat# 2535S), acetyl-CoA carboxylase (ACC; Cell Signaling Technology, Danvers, Massachusetts, USA; Cat# 3662S), and phosphorylated ACC (Cell Signaling Technology, Danvers, Massachusetts, USA; Cat# 3661S) antibodies at 4 °C. Antirabbit/mouse horseradish peroxidase (HRP)-conjugated secondary antibodies were used for 1 h at room temperature, followed by chemiluminescence detection using Clarity Western ECL Blotting Substrate (Bio-Rad, California). Densitometry was quantified by using ImageJ software. Quantification was normalized to anti-β actin antibody (Abcam, Cambridge, UK; Cat# ab49900) or valosin-containing protein (VCP) (Abcam, Cambridge, UK; Cat# ab204290).

[5] = biological target: 5-HT2B receptor; set-up: method as in PMID 30904940; conditions: cited from earlier work
[6] = test system: C57Bl/6 mice; assay: Acute single oral dose of MEAI: drug tolerability; assay type: in vivo; conditions: lean male mice
Procedure: Male 6-week-old C57Bl/6 mice (Harlan, Israel) were maintained in standard conditions under a 12 h light/dark cycle and fed ad libitum. A total of 32 animals were divided into four experimental groups (N = 8 mice per group) receiving single doses of 40, 60, or 100 mg/kg of MEAI or vehicle (sterile water), which was administered via oral gavage 2 h prior to the dark phase. The animals were monitored for 48 h postdose for drug tolerability, food and water intakes, and activity and metabolic parameters. At the end of the experiment, the animals were euthanized, and tissues (brain, liver, fat, and kidney) and blood were collected and stored in a frozen state for future analyses.

[7] = test system: MAO-A; set-up: method as in PMID 29458138; conditions: cited from earlier work
[8] = test system: serotonin transporter (SERT); set-up: method as in PMID 30904940; conditions: cited from earlier work

Chain of 5-HT2B (P41595 whole entry): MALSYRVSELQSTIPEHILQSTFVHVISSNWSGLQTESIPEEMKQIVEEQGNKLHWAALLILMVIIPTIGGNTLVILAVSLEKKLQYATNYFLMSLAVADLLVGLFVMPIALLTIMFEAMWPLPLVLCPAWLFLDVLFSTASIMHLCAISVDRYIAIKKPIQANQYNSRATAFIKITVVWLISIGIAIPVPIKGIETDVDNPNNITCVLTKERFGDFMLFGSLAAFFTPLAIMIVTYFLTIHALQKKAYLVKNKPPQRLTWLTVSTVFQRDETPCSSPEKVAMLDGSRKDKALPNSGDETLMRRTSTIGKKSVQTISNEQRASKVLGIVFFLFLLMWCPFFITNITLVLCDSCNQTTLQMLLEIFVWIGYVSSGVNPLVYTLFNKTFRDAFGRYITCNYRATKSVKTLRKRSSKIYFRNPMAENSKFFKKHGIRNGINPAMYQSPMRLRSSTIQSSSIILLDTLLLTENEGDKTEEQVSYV

COc1ccc2c(c1)CC(N)C2.Cl (stereo not drawn) [MEAI, 2,3-Dihydro-5-methoxy-1H-inden-2-amine hydrochloride]
Emax ([1]; BaF3, read-out: maximum response, calcium flux (percent of control response to serotonin at 0.25 μM), cytosolic Ca2+ mobilization, agonist mode): 18.6%
agonist activity at the 5-HT2B receptor ([1]; calcium flux): did not act as an agonist
preference for sucrose solution ([2]; 1.5% sucrose, most evident during initial 24 h, vs vehicle): significantly reduced
water intake levels ([2]; sucrose preference test): without any accompanying decrease
insulin levels [3]: reduced
circulating leptin levels ([3]; 28 days, vs HFD vehicle): effectively countered the HFD-induced elevation
serum serotonin levels ([3]; 28 days, vs HFD vehicle): did not significantly alter
circulating levels of adiponectin ([3]; across all groups): remained unchanged
circulating triglyceride levels ([3]; across all groups): remained largely unchanged
HDL levels ([3]; serum): without a significant change
HDL-to-LDL ratio ([3]; serum): positive shift
free fatty acids ([3]; serum): trend toward reduced
total cholesterol levels ([3]; serum, did not reach statistical significance): downward trend
LDL ([3]; serum, vs HFD vehicle): significant decrease
ALP levels ([3]; serum, vs HFD-vehicle): significantly reduced
ALT levels ([3]; serum, vs HFD-vehicle): did not significantly alter
AST levels ([3]; serum, vs HFD-vehicle): did not significantly alter
CD36 protein levels [4]: remained unchanged
FASN protein levels [4]: significantly reduced
SCD1 protein levels [4]: significantly reduced
phosphorylated ACC (p-ACC) levels [4]: did not significantly affect
phosphorylated AMPK (p-AMPK) [4]: trend toward increased
Ki [5]: 4.79 µM
deaths after dosing ([6]; single oral dose 100 mg/kg, within a few hours): two subjects in the 100 mg/kg group died
drug tolerability ([6]; single oral dose, 40 and 60 mg/kg): well-tolerated
binding inhibition [7]: unaffected
interaction with transporter [8]: interacts
